Assay results: article PMC7168207, “Dibasic Derivatives of Phenylcarbamic Acid as Prospective Antibacterial Agents Interacting with Cytoplasmic Membrane” (Antibiotics, 2020)
Where “and” joins values, the source holds several entries; their conditions need not be identical. Identical values can stand only once. Like-named read-outs stand apart in the source and are kept apart here. Marks after values point to notes of the source that are not given here.

Columns and labels:
[1] = tested on: S. aureus ATCC 29213; assay: MIC, broth microdilution; type: cell-based, Staphylococcus aureus; conditions: Staphylococcus aureus
Method in brief: (§1)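 Each strain, standardized to 0.5 McFarland and brought to a final 5 × 10^5 CFU/mL, was exposed to compound dilutions in genus-appropriate medium (cation-adjusted MH for S. aureus, BHI for enterococci). It was then held overnight under air at 37 °C before growth inhibition was scored.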

[2] = tested on: methicillin-resistant S. aureus 63718; assay: MIC, broth microdilution; type: cell-based, Staphylococcus aureus; conditions: Staphylococcus aureus, read-out: MICs
Method in brief: as §1

[3] = tested on: methicillin-resistant S. aureus SA 3202; assay: MIC, broth microdilution; type: cell-based, Staphylococcus aureus; conditions: Staphylococcus aureus, read-out: MICs
Method in brief: as §1

[4] = tested on: methicillin-resistant S. aureus SA 630; assay: MIC, broth microdilution; type: cell-based, Staphylococcus aureus; conditions: Staphylococcus aureus, read-out: MICs
Method in brief: as §1

[5] = tested on: vancomycin-resistant enterococci VRE 368; assay: MIC, broth microdilution; type: cell-based, Enterococcus faecalis; conditions: Enterococcus, read-out: MICs
Method in brief: as §1

[6] = tested on: vancomycin-resistant enterococci VRE 725B; assay: MIC, broth microdilution; type: cell-based, Enterococcus faecalis; conditions: Enterococcus, read-out: MICs
Method in brief: as §1

[7] = tested on: Candida albicans CCM 8261; assay: minimum fungistatic concentration, RPMI 1640; type: cell-based; conditions: CCM8261, CA = C albicans CCM 8261, 48 h
Procedure: Fungistatic activity was tested similarly in RPMI (Roswell Park Memorial Institute) 1640 medium (Sigma, Pool, UK). […] A growth control and sterility control were included. The colonies of C. albicans grown overnight on Sabourad dextrose agar were suspended in sterile phosphate-buffered saline (PBS) to get cell density 0.5 McFarland. The inoculum was diluted to get a final concentration of 10^3 CFU/mL in the wells. Plates were inoculated and cultivated at 37 °C for 48 h. The minimum fungistatic concentration was visually evaluated as the lowest concentration of a tested compound, which inhibited 100% of yeast growth. 5-Flucytosin (Sigma, UK) was used as a positive control.

[8] = tested on: MRSA 63718; assay: time-kill study; type: cell-based, Staphylococcus aureus; conditions: MRSA1
Description: (§2) Time-kill studies are used to evaluate the dynamics of antibacterial activity. As mentioned above, a pre-test to determine minimum bactericidal concentration (MBC) by sub-cultivation of aliquots on agar was made (see Section 3.4). […] Time-kill studies were made with methicillin-susceptible S. aureus ATCC 29213 and methicillin-resistant MRSA 63718, vancomycin-susceptible E. faecalis ATCC 29212, and all three VRE isolates. Vancomycin was used as a control (Table 6).
(§3) The method of time-kill curves was used to study the bactericidal effect of selected compounds. […] The experiment was performed with S. aureus ATCC 29213, MRSA 63718, E. faecalis ATCC 29212, and all VRE isolates. […] The tubes were inoculated by bacterial inoculum in the exponential phase of growth to get a final concentration of 7.5 × 10^6 CFU/mL. The tubes were incubated statically at 37 °C. Immediately after inoculation and after 4, 6, 8, and 24 h, 100 µL of the sample was serially diluted (1:10) in PBS. Then, 2 × 20 µL from each dilution were put onto a Mueller–Hinton agar plate and cultivated at 37 °C for 24 h. After incubation, CFUs of dilutions containing 5–50 colonies were counted. Results were expressed as a decrease of log10(CFU) in each time compared to the starting inoculum. Bactericidal effect is defined as a −3log decrease of CFU/mL compared to the growth control in time 0. The test was made in duplicate on two separate occasions, and the results were averaged. The growth curves with error bars are shown in Figures S1 and S2 in Supplementary Materials.

[9] = tested on: S. aureus ATCC 29213; assay: time-kill study; type: cell-based, Staphylococcus aureus; conditions: SA
Description: as §2, §3

[10] = tested on: S. aureus ATCC 29213; assay: crystal violet uptake (membrane permeability); type: cell-based, Staphylococcus aureus; conditions: 64 µg/mL, 1 h; two-way ANOVA, Tukey's test, p < 0.05
Procedure: The alternation in membrane permeability was detected by crystal violet assay. Bacterial suspension treated by compounds 1f, 1g, and 1h (all 64 µg/mL) for 1 h was prepared. The uptake of crystal violet was expressed as a percentage compared to the original crystal violet solution.
The method of crystal violet uptake was used to study membrane alteration. Bacterial suspension was cultivated to log phase in CaMH and then harvested at 4500 rpm for 5 min. The cells were washed twice and resuspended in PBS containing 64 µg/mL of the tested compounds. […] A growth control without antibiotics and a control containing the same amount of DMSO as treated tubes were included. The tubes were cultivated at 37 °C for 1 h. After that, the tubes were centrifuged at 4500 rpm for 15 min and washed twice in PBS. The cells were resuspended in PBS containing crystal violet (10 µg/mL). After 15 min incubation at 37 °C and centrifugation (15 min, 4500 rpm), the absorbance of supernatant at 595 nm was measured. The experiment was repeated three times, and the results were averaged. The percentage of crystal violet uptake was counted according to the equation:(1) % of uptake = OD595 of sample/OD595 of crystal violet solution × 100

[11] = parameters: method as in PMID 30274224; conditions: isocratic RP-HPLC, extrapolated lipophilicity index; cited from earlier work
[12] = parameters: method as in PMID 30274224; conditions: methanolic solutions, c = 8.0 × 10^−5 M; cited from earlier work

SMILES | Log10 Difference in CFU/mL from Inoculum ([8]; 1 × MIC, 4 h) | Log10 Difference in CFU/mL from Inoculum ([8]; 1 × MIC, 6 h) | Log10 Difference in CFU/mL from Inoculum ([8]; 1 × MIC, 8 h) | Log10 Difference in CFU/mL from Inoculum ([8]; 1 × MIC, 24 h) | Log10 Difference in CFU/mL from Inoculum ([8]; 2 × MIC, 4 h) | Log10 Difference in CFU/mL from Inoculum ([8]; 2 × MIC, 6 h) | Log10 Difference in CFU/mL from Inoculum ([8]; 2 × MIC, 8 h) | Log10 Difference in CFU/mL from Inoculum ([8]; 2 × MIC, 24 h) | Log10 Difference in CFU/mL from Inoculum ([8]; 4 × MIC, 4 h) | Log10 Difference in CFU/mL from Inoculum ([8]; 4 × MIC, 6 h) | Log10 Difference in CFU/mL from Inoculum ([8]; 4 × MIC, 8 h) | Log10 Difference in CFU/mL from Inoculum ([8]; 4 × MIC, 24 h) | Log10 Difference in CFU/mL from Inoculum ([9]; 1 × MIC, 4 h) | Log10 Difference in CFU/mL from Inoculum ([9]; 1 × MIC, 6 h) | Log10 Difference in CFU/mL from Inoculum ([9]; 1 × MIC, 8 h) | Log10 Difference in CFU/mL from Inoculum ([9]; 1 × MIC, 24 h) | Log10 Difference in CFU/mL from Inoculum ([9]; 2 × MIC, 4 h) | Log10 Difference in CFU/mL from Inoculum ([9]; 2 × MIC, 6 h) | Log10 Difference in CFU/mL from Inoculum ([9]; 2 × MIC, 8 h) | Log10 Difference in CFU/mL from Inoculum ([9]; 2 × MIC, 24 h) | also measured
CCCCCCOc1cccc(NC(=O)OC(CN(CCC)CCC)CN2CCCC2)c1.Cl.Cl (centres unmarked) [1g, 1-[3-(dipropylammonio)-2-({[3-(hexyloxy)phenyl]carbamoyl}oxy)propyl]pyrrolidinium dichloride] | 0.00 log10 CFU/mL | 0.66 log10 CFU/mL | 1.00 log10 CFU/mL | 1.99 log10 CFU/mL | −1.33 log10 CFU/mL | −0.93 log10 CFU/mL | −0.26 log10 CFU/mL | 1.29 log10 CFU/mL | −2.57 * log10 CFU/mL | −1.99 * log10 CFU/mL | −1.26 * log10 CFU/mL | 1.21 log10 CFU/mL | 1.54 log10 CFU/mL | 1.98 log10 CFU/mL | 2.33 log10 CFU/mL | 2.74 log10 CFU/mL | 0.87 log10 CFU/mL | 0.98 log10 CFU/mL | 1.26 log10 CFU/mL | 2.24 log10 CFU/mL | MIC ([1]; ATCC29213, SA = S. aureus ATCC 29213, read-out: MICs): 8 µg/mL and 15.4 µM; MIC ([1]; ATCC29213, Table 7, planktonic cells of S. aureus ATCC 29213, read-out: MIC): 8 µg/mL; MIC ([2]; MRSA1 = S. aureus 63718): 8 µg/mL and 15.4 µM; MIC ([3]; MRSA3 = SA 3202): 8 µg/mL and 15.4 µM; MIC ([4]; MRSA2 = SA 630): 16 µg/mL and 30.8 µM; MIC ([5]; VRE2 = VRE 368): 8 µg/mL and 15.4 µM; MIC ([6]; VRE3 = VRE 725B): 8 µg/mL and 15.4 µM; MIC [7]: 16 µg/mL and 30.8 µM; Log10 Difference in CFU/mL from Inoculum ([9]; 4 × MIC, 4 h): −0.26 log10 CFU/mL; Log10 Difference in CFU/mL from Inoculum ([9]; 4 × MIC, 6 h): −0.04 log10 CFU/mL; Log10 Difference in CFU/mL from Inoculum ([9]; 4 × MIC, 8 h): 0.10 log10 CFU/mL; Log10 Difference in CFU/mL from Inoculum ([9]; 4 × MIC, 24 h): 1.85 log10 CFU/mL; crystal violet uptake compared with 1% Tween 20 (positive control) [10]: No statistically significant difference; log kw [11]: 4.9446; log ε2 (Ch-T) [12]: 4.13
CN[C@H](CC(C)C)C(=O)N[C@H]1C(=O)N[C@@H](CC(N)=O)C(=O)N[C@H]2C(=O)N[C@H]3C(=O)N[C@H](C(=O)N[C@H](C(=O)O)c4cc(O)cc(O)c4-c4cc3ccc4O)[C@H](O)c3ccc(c(Cl)c3)Oc3cc2cc(c3O[C@@H]2O[C@H](CO)[C@@H](O)[C@H](O)[C@H]2O[C@H]2C[C@](C)(N)[C@H](O)[C@H](C)O2)Oc2ccc(cc2Cl)[C@H]1O [VAN, vancomycin, reference compound] | −1.00 log10 CFU/mL | −1.50 log10 CFU/mL | −1.76 log10 CFU/mL | 0.55 log10 CFU/mL | −0.91 log10 CFU/mL | −1.43 log10 CFU/mL | −1.97 log10 CFU/mL | −5.18 log10 CFU/mL | −1.31 log10 CFU/mL | −1.75 log10 CFU/mL | −3.89 log10 CFU/mL | −5.19 log10 CFU/mL | −0.37 log10 CFU/mL | −0.65 log10 CFU/mL | −0.84 log10 CFU/mL | 2.90 log10 CFU/mL | −0.26 log10 CFU/mL | −0.59 log10 CFU/mL | −1.12 log10 CFU/mL | −3.67 log10 CFU/mL | MIC ([1]; ATCC29213, read-out: MICs): 1 µg/mL and 0.69 µM; MIC [2]: 2 µg/mL and 1.38 µM; MIC [3]: 1 µg/mL and 0.69 µM; MIC [4]: 1 µg/mL and 0.69 µM; MIC ([5]; VRE): 512 µg/mL and 353 µM; MIC ([6]; VRE): 1020 µg/mL and 706 µM; Log10 Difference in CFU/mL from Inoculum ([9]; 4 × MIC, 4 h): −0.27 log10 CFU/mL; Log10 Difference in CFU/mL from Inoculum ([9]; 4 × MIC, 6 h): −0.38 log10 CFU/mL; Log10 Difference in CFU/mL from Inoculum ([9]; 4 × MIC, 8 h): −1.18 log10 CFU/mL; Log10 Difference in CFU/mL from Inoculum ([9]; 4 × MIC, 24 h): −5.47 log10 CFU/mL
